Results on 1 molecule are retold here after PubChem BioAssay AID2454 (Broad Institute, 2010).

pEC50: −log10 of the molar value.

The assay relates to H4 cells, SNCA 5'UTR luciferase reporter translation. Put plainly: inhibitors of SNCA 5'UTR-driven translation, confirmation, luminescence, H4 neuroglioblastoma cells, dose confirmation (AID 2454).

As for `COc1ccc(O)c2c(=O)c3c(OC)cc4c(c3oc12)C1C=COC1O4` (stereo unspecified), the negative logarithm of the EC50 (pEC50) is 6.24.

As usually defined, the pEC50 is the negative decadic logarithm of the EC50, by convention in mol/L.
